The record followed here is PubChem BioAssay (NCI).

What all share (assay): NCI anticancer screen, dose series, 48 h
Assay [1] concerns MOLT-4 leukemia.
Assay [2] concerns MCF7 breast.
Assay [3] relates to SNB-19 CNS.
In assay [4] the test system is OVCAR-3 ovarian.
Assay [5] has as its system A549 NSCLC.
Assay [6] has as its system BT-549 breast.
The test system of assay [7] is SF-268 CNS.
Assay [8] relates to A498 renal.
In assay [9] the test system is SW-620 colon.
For assay [10], the system named is MDA-N.
Assay [11] concerns NCI/ADR-RES ovarian.
Assay [12] has as its system SK-MEL-2 melanoma.
Assay [13] has as its system 786-0 renal.
Assay [14] deals with SK-MEL-5 melanoma.
Assay [15] concerns SNB-75 CNS.
The test system of assay [16] is NCI-H460 lung.
Assay [17] deals with NCI-H522 lung.
Assay [18] has as its system UO-31 renal.
Assay [19] has as its system HT29 colon.
In assay [20] the test system is UACC-62 melanoma.

SMILES strings stand for the structures.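 Cultured in 96-well plates, cells were exposed to test compound for 48 hours across five concentrations. The concentration for full growth arrest is given as TGI.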 Some results are limits rather than exact numbers.

Take `Cc1sc2[nH]c(=O)oc(=O)c2c1C`: the TGI is above 100 µM in [1]; above 78.9 µM in assay [2]; above 100 µM in [3]; above 100 µM in assay [4]; above 100 µM in assay [5]; above 86.6 µM in [6]. Besides, the TGI in assay [7], in assay [8], in assay [9], in [10], in [11] and in [12] was above 100 µM each time. In addition, the TGI in [13] was above 100 µM; in [14], above 100 µM; in assay [15] it was above 100 µM; in assay [16], above 100 µM; in [17], above 83.1 µM; in [18], above 83.3 µM. The TGI in [19] and in [20] was above 100 µM throughout.
For `CCCCc1ccc(Nc2nc(Cl)c3ncn(COCCOC(C)=O)c3n2)cc1`, the TGI stood at 61.8 µM in [1]; 93.7 µM in assay [2]; 38.7 µM in assay [3]; 43.4 µM in [4]; 51.2 µM in assay [5]; 35.8 µM in assay [6]. Besides, the TGI stood at 36.9 µM in [7]; 59.3 µM in assay [8]; 43.8 µM in [9]; 37 µM in [10]; 35.7 µM in assay [11]; 31.5 µM in assay [12]. Moreover, the TGI in assay [13] turned out to be 29.5 µM; in [14] it was 30.9 µM; in assay [15], 44.3 µM; in [16], 32.9 µM; in assay [17], 42.9 µM; in [18], 29.7 µM. For the same molecule, the TGI was 32.2 µM in assay [19] and 31.9 µM in [20].
Take `S=C(NNC1=NCCCCN1)Nc1ccc(Cl)cc1`: the TGI in [1] is 47.1 µM; in [2] it was above 100 µM; in assay [3], above 100 µM; in [4] it was above 100 µM; in [5], above 100 µM; in [6], above 100 µM. Besides, the TGI in assay [7], in assay [8], in [9], in assay [10], in assay [11] and in [12] was above 100 µM throughout. The TGI in assay [13] was above 100 µM; in [14], 20.5 µM; in assay [15], above 100 µM; in [16] it was above 100 µM; in [17] it was 42.3 µM; in [18], 31.6 µM. The TGI is above 100 µM in [19] and 18.9 µM in assay [20].
`CCOc1ccc2nc3nc(=O)[nH]c(C)c3c(NCCCN(CC)CC)c2c1`: the TGI in assay [1], in assay [2], in [3], in assay [4], in assay [5] and in [6] was above 100 µM each time. Also, the TGI in assay [7], in assay [8], in [9], in assay [10], in assay [11] and in [12] was above 100 µM in each case. Further, the TGI in assay [13], in assay [14], in assay [15], in assay [16], in assay [17] and in assay [18] was above 100 µM throughout. For the same molecule, the TGI in assay [19] and in assay [20] was above 100 µM throughout.
For the molecule `COC(=O)c1c(C)cccc1C1CN=NC12Cc1ccccc1C2=O` (stereo not given), the TGI was above 100 µM in assay [1]; above 43.8 µM in [2]; above 100 µM in [3]; above 100 µM in assay [4]; above 100 µM in [5]; above 100 µM in [6]. Besides, the TGI in assay [7], in [8], in assay [9], in assay [10], in [11] and in [12] was above 100 µM each time. Besides, the TGI in assay [13], in assay [14], in assay [15], in [16], in assay [17] and in assay [18] was above 100 µM in each case. Further, the TGI in assay [19] and in assay [20] was above 100 µM each time.
Turning to `O=[N+]([O-])c1ccc(-c2cc(O)c3nc4ccccc4n3c2)cc1`, the TGI in assay [1], in [2], in assay [3], in assay [4], in assay [5] and in [6] was above 100 µM each time. The TGI in assay [7], in assay [8], in [9], in assay [10], in assay [11] and in assay [12] was above 100 µM each time. Moreover, the TGI was above 100 µM in assay [13]; above 100 µM in assay [14]; above 76.2 µM in assay [15]; above 100 µM in assay [16]; above 100 µM in assay [17]; above 100 µM in assay [18]. The TGI was above 100 µM in [19] and above 31.6 µM in assay [20].
As for `O=C(O)CSC(CC1(c2ccc(Cl)cc2)NC(=O)CS1)c1ccc(Cl)cc1` (stereo not given), the TGI in assay [1], in assay [2], in [3], in [4], in [5] and in [6] was above 100 µM each time. Also, the TGI in assay [7], in assay [8], in assay [9], in assay [10], in [11] and in [12] was above 100 µM in each case. In addition, the TGI in [13], in [14], in [15], in [16], in assay [17] and in assay [18] was above 100 µM in each case. The TGI in assay [19] and in assay [20] was above 100 µM in each case.
